Measurements: US10933061B2 (Shepherd Therapeutics, Inc., priority 2017, dated 2021)
Values joined by “and” are separate entries in the source; they are usually repeats but may differ in a detail not shown here. Identical values can stand only once. Like-named read-outs stand apart in the source and are kept apart here.

Assays:
Assay in all cases: Chou-Talalay combination assay, Cell Titer Glo
[1] = test system: NCI-H295R adrenocortical carcinoma cells; format: cell-based; details: combination with pyrvinium pamoate, 72 hour incubation
Method: (§1) Following a 72 hour incubation, cell viability was determined using Cell Titer Glo.

[2] = test system: SW13 adrenocortical carcinoma cells; format: cell-based; details: combination with pyrvinium pamoate, 72 hour incubation
Method: as §1

[3] = test system: carcinoid tumor cell line STC-1; format: cell-based; details: combination with pyrvinium pamoate, 72 hour incubation
Method: as §1

[4] = test system: CCC-5 cholangiocarcinoma cells; format: cell-based; details: combination with pyrvinium pamoate, 72 hour incubation
Method: as §1

[5] = test system: TFK-1 cholangiocarcinoma cells; format: cell-based; details: combination with pyrvinium pamoate, 72 hour incubation
Method: as §1

[6] = test system: UM-Chor1 chordoma cell line; format: cell-based; details: combination with pyrvinium pamoate, 72 hour incubation
Method: as §1

[7] = test system: HCT116 colorectal carcinoma cells; format: cell-based; details: combination with pyrvinium pamoate, 72 hour incubation
Method: as §1

[8] = test system: Colo-205 colorectal carcinoma cells; format: cell-based; details: combination with pyrvinium pamoate, 72 hour incubation
Method: as §1

[9] = test system: Flo-1 esophageal carcinoma cells; format: cell-based; details: combination with pyrvinium pamoate, 72 hour incubation
Method: as §1

[10] = test system: OE-33 esophageal carcinoma cells; format: cell-based; details: combination with pyrvinium pamoate, 72 hour incubation
Method: as §1

[11] = test system: TC-32 Ewing's sarcoma cells; format: cell-based; details: combination with pyrvinium pamoate, 72 hour incubation
Method: as §1

[12] = test system: TC-71 Ewing's sarcoma cells; format: cell-based; details: combination with pyrvinium pamoate, 72 hour incubation
Method: as §1

[13] = test system: Kato-III gastric carcinoma cells; format: cell-based; details: Kato-III; combination with pyrvinium pamoate; 72 hour incubation
Method: as §1

[14] = test system: SNU-16 gastric carcinoma cells; format: cell-based; details: combination with pyrvinium pamoate, 72 hour incubation
Method: as §1

[15] = test system: GIST-1 gastrointestinal stromal tumor cells; format: cell-based; details: 72 hour incubation; for CI range: combination with pyrvinium pamoate
Method: as §1

[16] = test system: SK-LMS-1 leiomyosarcoma cells; format: cell-based; details: combination with pyrvinium pamoate, 72 hour incubation
Method: as §1

[17] = test system: COV362 ovarian carcinoma cells; format: cell-based; details: combination with pyrvinium pamoate, 72 hour incubation
Method: as §1

[18] = test system: TOV-112D ovarian carcinoma cells; format: cell-based; details: 72 hour incubation; for CI range: combination with pyrvinium pamoate
Method: as §1

[19] = test system: Hs766t pancreatic carcinoma cells; format: cell-based; details: combination with pyrvinium pamoate, 72 hour incubation
Method: as §1

[20] = test system: Rh30 rhabdomyosarcoma cells; format: cell-based; details: combination with pyrvinium pamoate, 72 hour incubation
Method: as §1

[21] = test system: Rh41 rhabdomyosarcoma cells; format: cell-based; details: combination with pyrvinium pamoate, 72 hour incubation
Method: as §1

[22] = test system: BxPC-3 pancreatic carcinoma cells; details: combination with pyrvinium pamoate, 72 hour incubation
Method: as §1

[23] = test system: LO-68 mesothelioma cells; format: cell-based; details: combination with pyrvinium pamoate, 72 hour incubation
Method: as §1

[24] = test system: JU-77 mesothelioma cells; format: cell-based; details: combination with pyrvinium pamoate, 72 hour incubation
Method: as §1

[25] = test system: SK-N-AS neuroblastoma cells; format: cell-based
Method: as §1

[26] = test system: CHP-212 neuroblastoma cells; format: cell-based; details: combination with pyrvinium pamoate, 72 hour incubation
Method: as §1

[27] = test system: SK-UT-1B leiomyosarcoma cells; format: cell-based; details: combination with pyrvinium pamoate, 72 hour incubation
Method: as §1

[28] = test system: SK-UT-1 leiomyosarcoma cells; format: cell-based; details: combination with pyrvinium pamoate, 72 hour incubation
Method: as §1

[29] = SK-N-AS, combination with pyrvinium pamoate, 72 hour incubation

| Structure (SMILES) | CI range [1] | CI range [2] | CI range [3] | CI range [6] | CI range [9] | CI range [10] | CI range [11] | CI range [12] | CI range [14] | CI range [15] | CI range [16] | CI range [17] | CI range [20] | CI range [21] | CI range [26] | further results |
| --- | --- | --- | --- | --- | --- | --- | --- | --- | --- | --- | --- | --- | --- | --- | --- | --- |
| O=c1[nH]cc(F)c(=O)[nH]1 [5-FU, 5-Fluorouracil] | 0.529-0.780 | 0.506-0.834 | 0.596-0.841 | 0.489-0.886 | 0.378-0.859 | 0.481-0.715 | 0.337-0.843 | 0.409-0.821 | 0.547-0.850 | 0.168-0.798 | 0.421-0.814 | 0.472-0.723 | 0.001-0.887 | 0.642-0.831 | – | CI range [4]: 0.319-0.892; CI range [5]: 0.303-0.814; CI range [7]: 0.806-0.886; CI range [8]: 0.094-0.867; Synergy with pyrvinium pamoate [13]: No; Synergy with pyrvinium pamoate [18]: No; CI range [19]: 0.328-0.504 and 0.230-0.589; CI range [22]: 0.539-0.785 |
| N.N.O=C([O-])C1(C(=O)[O-])CCC1.[Pt+2] [Carboplatin] | 0.190-0.896 | 0.408-0.891 | – | – | 0.253-0.892 | 0.647-0.863 | 0.101-0.836 | 0.597-0.878 | 0.267-0.860 and 0.261-0.842 | – | 0.366-0.812 | 0.447-0.837 | 0.770-0.821 | 0.162-0.820 | 0.519-0.846 | CI range [13]: 0.221-0.887; Synergy with pyrvinium pamoate [15]: No; CI range [23]: 0.410-0.801; CI range [24]: 0.385-0.853; CI range [25, 29]: 0.107-0.843; CI range [18]: 0.506-0.845 |
| O=P1(N(CCCl)CCCl)NCCCO1 (stereo not shown) [Cyclophosphamide] | – | – | 0.167-0.751 | – | – | – | – | 0.718-0.722 | – | – | – | – | 0.083-0.786 | 0.274-0.867 | 0.256-0.876 | CI range [25]: Yes- (0.098-0.858) |
| CC(=O)O[C@@]12CO[C@@H]1C[C@H](O)[C@@]1(C)C(=O)[C@H](O)C3=C(C)[C@@H](OC(=O)[C@H](O)[C@@H](NC(=O)OC(C)(C)C)c4ccccc4)C[C@@](O)([C@@H](OC(=O)c4ccccc4)[C@H]21)C3(C)C [Docetaxel] | – | – | – | – | – | – | – | – | – | – | – | – | – | – | – | Synergy with pyrvinium pamoate [18]: No |
| C#Cc1cccc(Nc2ncnc3cc(OCCOC)c(OCCOC)cc23)c1 [Erlotinib] | – | – | – | 0.308-0.883 | – | – | – | – | – | – | – | – | – | – | – | – |
| O=P1(NCCCl)OCCCN1CCCl (stereo not shown) [Ifosfamide] | – | – | – | – | – | – | – | – | – | – | – | – | – | – | – | CI range [27]: 0.285-0.315 |
| Cc1ccc(NC(=O)c2ccc(CN3CCN(C)CC3)cc2)cc1Nc1nccc(-c2cccnc2)n1 [Imatinib] | – | – | – | – | – | – | – | – | – | 0.203-0.726 | – | – | – | – | – | – |
| CC(=O)O[C@H]1C(=O)[C@@]2(C)[C@H]([C@H](OC(=O)c3ccccc3)[C@]3(O)C[C@H](OC(=O)[C@H](O)[C@@H](NC(=O)c4ccccc4)c4ccccc4)C(C)=C1C3(C)C)[C@]1(OC(C)=O)CO[C@@H]1C[C@@H]2O [Paclitaxel] | 0.571-0.887 | 0.552-0.870 | 0.479-0.873 | 0.573-0.862 | 0.640-0.888 | 0.527-0.896 | 0.586-0.884 | 0.254-0.721 | 0.178-0.820 | 0.399-0.808 | 0.078-0.847 | 0.451-0.761 | 0.362-0.829 | 0.073-0.876 | 0.545-0.868 | CI range [4]: 0.255-0.847 and 0.296-0.785; CI range [5]: 0.277-0.894; CI range [13]: 0.076-0.898; CI range [28]: (0.089-0.330); CI range [27]: 0.262-0.773; CI range [25, 29]: 0.367-0.857; CI range [18]: 0.104-0.877; CI range [19]: 0.232-0.830; CI range [22]: 0.613-0.899 |
| CCC1=C[C@@H]2CN(C1)Cc1c([nH]c3ccccc13)[C@@](C(=O)OC)(c1cc3c(cc1OC)N(C)[C@H]1[C@@](O)(C(=O)OC)[C@H](OC(C)=O)[C@]4(CC)C=CCN5CC[C@]31[C@@H]54)C2 [Vinorelbine] | – | – | – | – | – | – | – | – | – | – | – | – | – | – | – | CI range [23]: 0.163-0.845; CI range [24]: 0.454-0.717 |
